In BindingDB's records for doi:10.1021/jm960793t (Suntory, 1997) one finds IC50 data, which are given here for 2 compounds.

pIC50: −log10 of the molar value.

One experiment has as its target T1, Chymase (Homo sapiens, UniProt P23946).
T1 sequence (P23946 whole entry): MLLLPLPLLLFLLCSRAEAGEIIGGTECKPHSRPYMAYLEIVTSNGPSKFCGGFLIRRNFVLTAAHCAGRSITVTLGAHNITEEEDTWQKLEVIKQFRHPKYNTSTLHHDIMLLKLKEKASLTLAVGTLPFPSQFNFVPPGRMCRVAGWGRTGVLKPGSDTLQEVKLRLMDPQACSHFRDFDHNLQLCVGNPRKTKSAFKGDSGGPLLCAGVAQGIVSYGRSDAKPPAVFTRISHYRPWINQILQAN
As to the kind of experiment: Inhibitory activity against human heart chymase in vitro.

In the next experiment the target is T2, Cathepsin G (Homo sapiens, UniProt P08311).
T2 sequence (P08311 whole entry): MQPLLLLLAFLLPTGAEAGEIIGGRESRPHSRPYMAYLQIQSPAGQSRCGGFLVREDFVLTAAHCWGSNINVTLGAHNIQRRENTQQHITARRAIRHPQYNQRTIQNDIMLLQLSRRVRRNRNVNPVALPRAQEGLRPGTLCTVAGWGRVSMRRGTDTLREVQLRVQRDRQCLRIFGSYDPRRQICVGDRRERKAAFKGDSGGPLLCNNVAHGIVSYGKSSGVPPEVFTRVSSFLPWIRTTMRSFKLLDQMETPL
Put plainly: Inhibitory activity against human neutrophil cathepsin G.

As to `O=C(OCn1c(O)cn(-c2ccccc2)c1=O)c1ccccc1` [Benzoic acid 2,5-dioxo-3-phenyl-imidazolidin-1-ylmethyl ester], the pIC50 at Chymase and against Cathepsin G was below 4.00 throughout.

On Chymase, `O=c1n(S(=O)(=O)c2ccc(Cl)cc2)cc(O)n1-c1ccc(Cl)cc1` [1-(4-Chloro-benzenesulfonyl)-3-(4-chloro-phenyl)-imidazolidine-2,4-dione] had a pIC50 below 4.00.

What is called pIC50 is −log10 of the IC50, conventionally taken in molar units. Low values mean a high IC50, high ones a low IC50.
